Measured values as given in paper PMC5794198, “Inhibitors of Trypanosoma cruzi Sir2 related protein 1 as potential drugs against Chagas disease” (PLoS Neglected Tropical Diseases, 2018).

Key:
[1] = tested on: C2C12 cells; experiment: C2C12 host cell cytotoxicity (cell ratio) in HCS assay; assay type: cell-based, Mouse; conditions: CC50 cell line (C2C12)/EC50 T. cruzi
Experimental: (§1) For the evaluation of the activity against T. cruzi amastigotes, high-content screening (HCS) was designed. In summary, 100 μL of host C2C12 cells (ATCC) were seeded in clear bottom black 96-well plates at a density of 2.5 x 10^4 cells/mL (2.5 × 10^3 cells/well). […] The parasites were allowed to infect for a 24 hr period, after which compounds were added in a volume of 50 μL. […] After 72 hrs of compound incubation, the wells were fixed with 4% paraformaldehyde for 15 to 30 mins. The plates were then washed once with deionized water and stained with a solution of DAPI (3 μM) for 1 hour. Plates were imaged in an INCell 2000 (GE Healthcare) high-content analyser by taking 16 pictures per well at 20 X objective amplification. Images were analysed with INCell Developer software (GE Healthcare) using the segmentation of host cell nuclei and parasite kinetoplast DNA. The measurement output used was the average number of parasites per cell calculated by the ratio of host cell nuclei/parasite kinetoplast DNA.

[2] = as above; assay type: cell-based, Mouse; conditions: mouse, cell ratio, 72 h; read-out: C2C12 Cytotoxicity (CC50 ± SD)
Experimental: as §1

[3] = tested on: MDCK cells; experiment: MTT cytotoxicity on MDCK cells; assay type: cell-based; conditions: MTT
Experimental: (§2) To evaluate toxicity towards mammalian cell lines (hepatocytes (Seralab), neurons and MDCK cells (ATCC); a renal cell line from dogs), all the compounds were assayed with MTT [66]. Additionally, for cardiotoxicity evaluation, where toxic effects in cardiomyocytes could be affecting their function before being lethal, a hERG assay was performed according to the manufacturer’s protocol Predictor hERG Fluorescence Polarization Assay (Invitrogen). Briefly, inhibition of hERG channel was analysed by competition of BNIPSpd and a high-affinity red fluorescent hERG channel ligand. BNIPSpd (9) was mixed with the ligand and membranes containing hERG channel, incubated for 2 hrs at RT and the fluorescence polarization was measured using 530 / 590 nm ex/em filters using the Synergy 2 plate reader (Biotek).

[4] = MTT cytotoxicity on MDCK cells; assay type: cell-based; conditions: dog, MDCK; CC50 cell line / EC50 T. cruzi; read-out: Selectivity Index, MDCK cells
Experimental: as §2

[5] = tested on: T. cruzi epimastigotes, wild-type (WT); experiment: T. cruzi epimastigote resazurin viability assay, wild-type; assay type: cell-based, Trypanosoma cruzi; conditions: CL-Brener, 64 h + 6 h resazurin; means ± SD (n = 4)
Experimental: T. cruzi epimastigotes were seeded at 1.25 x 10^6 cells/mL in a 96-well plate in the presence of varying concentrations of test compounds. Following a 64-hour incubation, 15 μL of a resazurin solution (Sigma-Aldrich; 1.1 mg/mL in PBS). […] Each assay was performed in at least triplicate in parallel to the known trypanocidal agent nifurtimox.

[6] = tested on: Hepatocytes; experiment: HCS injury score panel in primary hepatocytes; assay type: cell-based
Experimental: In vitro assays were also performed in primary cells (hepatocytes and neurons) to evaluate BNIPSpd (9) potential toxicity: (a) host cell nuclei counting after HOECHST staining, (b) viability by measuring the metabolism of WST-8 probe, (c) apoptosis induction through caspase 3/7 activation, (d) evaluation of mitochondrial dysfunction by measuring the membrane potential using TMRM probe, (e) membrane integrity by measuring the extracellular LDH, (f) DNA damage by histone H2AX phosphorylation (exclusively in hepatocytes) and (g) imaging of neurite outgrowth (exclusively in neurons).
The assays were performed 24 hrs after cell collection and isolation. […] Then, absorbance at 450 nm was measured in order to analyse cell viability (WST-8). Cells were washed three times and analysed using the automatic fluorescence microscope BD Pathway 855. […] Data were analysed with AttoVision (Becton Dickinson). […] LDH release was measured in mU/L in culture media obtained from cells subjected to treatments for 24 hrs, by measuring the released LDH rate of oxidation of NADH to NAD^+ at 340 nm using Synergy 2 from BioTech.
DNA damage was evaluated by washing cells with PBS and fixation using paraformaldehyde 3% in PBS for 15 mins. […] To determine the DNA damage, intensity in the nuclei was analyzed using AttoVision software (Becton Dickinson). […]

O=C1c2cccc3cccc(c23)C(=O)N1CCCNCCCCNCCCNCCCN1C(=O)c2cccc3cccc(c23)C1=O [Compound 9, BNIP Spermidine]
Selectivity Index [1]: 8.8 | CC50 at 72 h [2]: 24.5 ± 0.45 µM | Nephotoxicity (MDCK cells) cytotoxicity [3]: ≥ 100 µM | selectivity ratio [4]: 35.2 | EC50 against T. cruzi epimastigotes WT [5]: moderate activity | Injury score for hepatocytes ([6]; at 50 μM): low injury (low injury (1 to <5)) | Injury score for hepatocytes ([6]; combined score of cytotoxicity panel, 24 hrs): low injury (low injury (1 to <5))
